Patent publication US8101754B2, “Triazole compounds suitable for treating disorders that respond to modulation of the dopamine D3 receptor” (Abbott GmbH & Co. KG, priority 2004, dated 2012)
Read-outs that look alike come from different tables or passages of the source. One block for each compound: values may come before it.

Legend:
[1] = target: T1, human dopamine D3 receptors (Homo sapiens, UniProt P35462); assay: Dopamine D3 receptor binding ([125I]-iodosulpride displacement)
T1 construct: expressed in transfected cells; membranes)
Procedure: The substance to be tested was either dissolved in methanol/Chremophor® (BASF-AG) or in dimethyl sulfoxide and then diluted with water to the desired concentration.
Each assay mixture was run in triplicate.
The incubation buffer contained 50 mM tris, 120 mM NaCl, 5 mM KCl, 2 mM CaCl2, 2 mM MgCl2 and 0.1% bovine serum albumin, 10 μM quinolone and 0.1% ascorbic acid (prepared fresh daily). The buffer was adjusted to pH 7.4 with HCl.
Measurement and Analysis:
After having been incubated at 25° C. for 60 minutes, the assay mixtures were filtered through a Wathman GF/B glass fiber filter under vacuum using a cell collecting device. The filters were transferred to scintillation viols using a filter transfer system. After 4 ml of Ultima Gold® (Packard) have been added, the samples were shaken for one hour and the radioactivity was then counted in a Beta-Counter (Packard, Tricarb 2000 or 2200CA). The cpm values were converted into dpm using a standard quench series and the program belonging to the instrument.
The inhibition curves were analyzed by means of iterative nonlinear regression analysis using the Statistical Analysis System (SAS) which is similar to the “LIGAND” program described by Munson and Rodbard.

[2] = target: T2, human dopamine D2L receptors (long isoform) (Homo sapiens, UniProt P14416); assay: Dopamine D2L receptor binding ([125I] iodospiperone), basis of selectivity Ki(D2)/Ki(D3); conditions: for D2/D3: Table 7, compounds of formula IIa; for Selectivity [Ki(D2)/Ki(D3)]: D2L vs D3
T2 construct: expressed in transfected cells; membranes)
Procedure: The substance to be tested was either dissolved in methanol/Chremophor® (BASF-AG) or in dimethyl sulfoxide and then diluted with water to the desired concentration. […] Each assay mixture was run in triplicate. The incubation buffer contained 50 mM tris, 120 mM NaCl, 5 mM KCl, 2 mM CaCl2, 2 mM MgCl2 and 0.1% bovine serum albumin. The buffer was adjusted to pH 7.4 with HCl. Measurement and Analysis: After having been incubated at 25° C. for 60 minutes, the assay mixtures were filtered through a Wathman GF/B glass fiber filter under vacuum using a cell collecting device. The filters were transferred to scintillation viols using a filter transfer system. After 4 ml of Ultima Gold® (Packard) have been added, the samples were shaken for one hour and the radioactivity was then counted in a Beta-Counter (Packard, Tricarb 2000 or 2200CA). The cpm values were converted into dpm using a standard quench series and the program belonging to the instrument. The inhibition curves were analyzed by means of iterative nonlinear regression analysis using the Statistical Analysis System (SAS) which is similar to the “LIGAND” program described by Munson and Rodbard.

[3] = Concentration of compounds in plasma and brain following oral dosing; type: in vivo, Sprague-Dawley rats; conditions: male rats, 10 mg/kg orally by gavage
Procedure: 2. Determination of the Concentration of Compounds in Plasma and Brain Following Dosing of Compounds in Animals
Male Sprague-Dawley rats were used in this study (2 to 4 per experiment). The animals were fasted overnight prior to dosing and throughout the duration of the study but were permitted water ad libitum.
Each rat received a 10 mg/kg (5 mL/kg) dose orally by gavage. At 0.5, 3 and 8 hours after drug administration, three animals were put under deep anesthesia using isoflurane and euthanized by bleeding (cardiac puncture) under deep isoflurane anesthesia. EDTA blood samples and brain tissue will be collected from each rat. Upon collection, the samples were promptly placed in an ice bath, and within 2 hours after sample collection, the blood was centrifuged at about 4° C. The resulting brain and plasma samples were placed in clean glass tubes and stored in a freezer until analysis.
The plasma samples were assayed for parent compound using appropriate liquid chromatography—mass spectrometry procedures. The results for compounds I are given in tables 2, and illustrate the high brain concentrations attainable with the compounds of the invention.

[4] = Table 7, compounds of formula IIa, read-out: D3
[5] = compounds II, read-out: Ki D3 values
[6] = Table 5, membranes of HEK-293 cells, read-out: Ki D3
[7] = Table 6, membranes of HEK-293 cells, read-out: ki D3

T1 sequence (P35462 whole entry): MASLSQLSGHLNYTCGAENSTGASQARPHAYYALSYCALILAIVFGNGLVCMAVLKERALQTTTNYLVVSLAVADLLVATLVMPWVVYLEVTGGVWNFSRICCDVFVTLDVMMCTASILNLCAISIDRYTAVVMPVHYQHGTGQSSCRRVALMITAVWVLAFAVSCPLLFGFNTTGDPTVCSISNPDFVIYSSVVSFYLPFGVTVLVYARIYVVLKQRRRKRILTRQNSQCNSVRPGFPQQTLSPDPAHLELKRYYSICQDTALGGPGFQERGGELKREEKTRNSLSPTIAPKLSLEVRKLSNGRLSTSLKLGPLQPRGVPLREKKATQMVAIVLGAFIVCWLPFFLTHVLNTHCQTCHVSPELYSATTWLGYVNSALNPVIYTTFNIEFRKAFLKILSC
T2 sequence (P14416 whole entry, canonical isoform): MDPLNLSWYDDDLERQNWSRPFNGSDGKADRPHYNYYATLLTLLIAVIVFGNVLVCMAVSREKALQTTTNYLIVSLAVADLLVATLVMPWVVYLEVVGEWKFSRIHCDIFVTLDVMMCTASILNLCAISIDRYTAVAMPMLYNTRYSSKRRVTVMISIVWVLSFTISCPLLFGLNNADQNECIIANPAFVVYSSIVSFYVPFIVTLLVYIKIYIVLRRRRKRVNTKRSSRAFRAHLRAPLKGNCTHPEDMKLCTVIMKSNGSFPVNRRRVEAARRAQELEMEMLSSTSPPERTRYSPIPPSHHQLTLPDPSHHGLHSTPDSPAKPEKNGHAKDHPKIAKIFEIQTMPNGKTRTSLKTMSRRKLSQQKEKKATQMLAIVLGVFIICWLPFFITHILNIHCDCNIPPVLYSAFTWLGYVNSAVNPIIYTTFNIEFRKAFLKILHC

Ki [1, 4]: 1.7 nM
D2/D3 [2]: 470
Brain level ([3]; Table 7): 840 ng/g
SMILES: CCCc1cc(N2CCN(CCCSc3nnc(CC)n3C)CC2)nc(C(C)(C)C)n1.Cl [c.11, 2-tert-Butyl-4-{4-[3-(4-methyl-5-ethyl-4H-[1,2,4]triazol-3-ylsulfanyl)-propyl]-piperazin-1-yl}-6-propyl-pyrimidine hydrochloride]

Ki [1, 4]: 2.4 nM
Ki [1, 5]: < 5 nM
D2/D3 [2]: 143
Brain level ([3]; Table 7): 780 ng/g
SMILES: CCCc1cc(N2CCN(CCCSc3nnc(COC)n3C)CC2)nc(C(C)(C)C)n1.Cl [c.12, 2-tert-Butyl-4-{4-[3-(4-methyl-5-methoxymethyl-4H-[1,2,4]triazol-3-ylsulfanyl)-propyl]-piperazin-1-yl}-6-propyl-pyrimidine hydrochloride]

Ki [1, 6]: 6.1 nM
Selectivity [Ki(D2)/Ki(D3)] ([2]; Table 5): 34
Brain level ([3]; Table 5): 1920 ng/g
SMILES: Cc1nnc(S(=O)(=O)CCCN2CCN(c3cc(C(C)(C)C)nc(C(C)(C)C)n3)CC2)n1C [Example 4, 2,4-Di-tert-butyl-6-{4-[3-(4,5-dimethyl-4H-[1,2,4]triazole-3-sulfonyl)-propyl]-piperazin-1-yl}-pyrimidine]

melting point: 92 to 95 °C
SMILES: Cl.Cn1cnnc1SCCCN1CCN(c2cc(C(F)(F)F)nc(C(C)(C)C)n2)CC1

Ki [1, 6]: 19.5 nM
Selectivity [Ki(D2)/Ki(D3)] ([2]; Table 5): 26
Brain level ([3]; Table 5): 1670 ng/g
SMILES: Cc1nnc([S+]([O-])CCCN2CCN(c3cc(C(C)(C)C)nc(C(C)(C)C)n3)CC2)n1C (racemic) [Example 1, 2,4-Di-tert-butyl-6-{4-[3-(4,5-dimethyl-4H-[1,2,4]triazole-3-sulfinyl)-propyl]-piperazin-1-yl}-pyrimidine]

Ki [1, 4]: 1.5 nM
Ki [1, 5]: < 5 nM
D2/D3 [2]: 96
Brain level ([3]; Table 7): 290 ng/g
SMILES: COCc1nnc(SCCCN2CCN(c3cc(C(F)F)nc(C(C)(C)C)n3)CC2)n1C.Cl [c.4, 2-tert-Butyl-4-{4-[3-(4-methyl-5-methoxymethyl-4H-[1,2,4]triazol-3-ylsulfanyl)-propyl]-piperazin-1-yl}-6-difluoromethyl-pyrimidine hydrochloride]

Ki [1, 4]: 2 nM
Ki [1, 5]: < 5 nM
D2/D3 [2]: 364
Brain level ([3]; Table 7): 1410 ng/g
SMILES: CCc1nnc(SCCCN2CCN(c3cc(C(F)(F)F)nc(C(C)(C)C)n3)CC2)n1C.Cl [c.15, 2-tert-Butyl-4-{4-[3-(4-methyl-5-ethyl-4H-[1,2,4]triazol-3-ylsulfanyl)-propyl]-piperazin-1-yl}-6-trifluoromethyl-pyrimidine hydrochloride]

Ki [1, 7]: 44.6 nM
Selectivity [Ki(D2)/Ki(D3)] ([2]; Table 6): 33
SMILES: CCCc1cc(N2CCN(CCCS(=O)(=O)c3nncn3C)CC2)nc(C(C)(C)C)n1 [Example 26, 2-tert-Butyl-4-{4-[3-(4-methyl-1H-[1,2,4]triazole-3-sulfonyl)-propyl]-piperazin-1-yl}-6-propyl-pyrimidine]

Ki [1, 7]: 26.2 nM
Selectivity [Ki(D2)/Ki(D3)] ([2]; Table 6): 8
SMILES: Cl.Cn1ncnc1S(=O)(=O)CCCN1CCN(c2cc(C(C)(C)C)nc(C(C)(C)C)n2)CC1 [Example 20, 2,4-Di-tert-butyl-6-{4-[3-(2-methyl-2H-[1,2,4]triazole-3-sulfonyl)-propyl]-piperazin-1-yl}-pyrimidine hydrochloride]

Ki [1, 6]: 17.7 nM
Selectivity [Ki(D2)/Ki(D3)] ([2]; Table 5): 56
SMILES: Cl.Cn1c(-c2ccc(F)cc2)nnc1S(=O)(=O)CCCN1CCN(c2cc(C(F)(F)F)nc(C(C)(C)C)n2)CC1 [Example 16, 2-tert-Butyl-4-(4-{3-[5-(4-fluoro-phenyl)-4-methyl-4H-[1,2,4]triazole-3-sulfonyl]-propyl}-piperazin-1-yl)-6-trifluoromethyl-pyrimidine hydrochloride]

Ki [1, 7]: 7.5 nM
Selectivity [Ki(D2)/Ki(D3)] ([2]; Table 6): 20
SMILES: Cn1cnnc1S(=O)(=O)CCCN1CCN(c2cc(C3CCCC3)nc(C(C)(C)C)n2)CC1 [Example 24, 2-tert-Butyl-4-{4-[3-(4-methyl-1H-[1,2,4]triazole-3-sulfonyl)-propyl]-piperazin-1-yl}-6-cyclopentyl-pyrimidine]

Ki [1, 6]: 18.3 nM
Selectivity [Ki(D2)/Ki(D3)] ([2]; Table 5): 45
SMILES: CCCc1cc(N2CCN(CCCS(=O)(=O)c3nnc(C)n3C)CC2)nc(C(C)(C)C)n1 [Example 9, 2-Di-tert-butyl-6-{4-[3-(4,5-dimethyl-4H-[1,2,4]triazole-3-sulfonyl)-propyl]-piperazin-1-yl}-6-propyl-pyrimidine]

Ki [1, 4]: 1.3 nM
D2/D3 [2]: 157
SMILES: Cl.Cn1c(SCCCN2CCN(c3cc(C(F)(F)F)nc(C(C)(C)C)n3)CC2)nnc1C(F)(F)F [c.13, 2-tert-Butyl-4-{4-[3-(4-methyl-5-trifluoromethyl-4H-[1,2,4]triazol-3-ylsulfanyl)-propyl]-piperazin-1-yl}-6-trifluoromethyl-pyrimidine hydrochloride]

Ki [1, 4]: 0.9 nM
Ki [1, 5]: < 5 nM
D2/D3 [2]: 293
melting point: 182 to 184 °C
SMILES: Cl.Cn1c(SCCCN2CCN(c3cc(C(F)(F)F)nc(C(C)(C)C)n3)CC2)nnc1C1CC1 [c.17, 2-tert-Butyl-4-{4-[3-(4-methyl-5-cyclopropyl-4H-[1,2,4]triazol-3-ylsulfanyl)-propyl]-piperazin-1-yl}-6-trifluoromethyl-pyrimidine hydrochloride]

Ki [1, 7]: 9.9 nM
Selectivity [Ki(D2)/Ki(D3)] ([2]; Table 6): 158
SMILES: CCCc1cc(N2CCN(CCC[S+]([O-])c3ncn(C)n3)CC2)nc(C(C)(C)C)n1.Cl (stereo not shown) [Example 28, 2-tert-Butyl-4-{4-[3-(1-methyl-1H-[1,2,4]triazole-3-sulfinyl)-propyl]-piperazin-1-yl}-6-propyl-pyrimidine hydrochloride]

Ki [1, 6]: 56 nM
Selectivity [Ki(D2)/Ki(D3)] ([2]; Table 5): 33
SMILES: CCCc1cc(N2CCN(CCC[S+]([O-])c3nnc(C)n3C)CC2)nc(C(C)(C)C)n1.Cl (stereo not shown) [Example 8, 2-tert-Butyl-4-{4-[3-(4,5-dimethyl-4H-[1,2,4]triazole-3-sulfinyl)-propyl]-piperazin-1-yl}-6-propyl-pyrimidine hydrochloride]

Ki [1, 7]: 20.3 nM
Selectivity [Ki(D2)/Ki(D3)] ([2]; Table 6): 59
SMILES: CCCc1cc(N2CCN(CCCS(=O)(=O)c3ncn(C)n3)CC2)nc(C(C)(C)C)n1 [Example 29, 2-tert-Butyl-4-{4-[3-(1-methyl-1H-[1,2,4]triazole-3-sulfonyl)-propyl]-piperazin-1-yl}-6-propyl-pyrimidine]

Ki [1, 7]: 3.5 nM
Selectivity [Ki(D2)/Ki(D3)] ([2]; Table 6): 51
SMILES: Cl.Cn1cnc([S+]([O-])CCCN2CCN(c3cc(C(C)(C)C)nc(C(C)(C)C)n3)CC2)n1 (stereo not shown) [Example 30, 2,6-di-tert-Butyl-4-{4-[3-(1-methyl-1H-[1,2,4]triazole-3-sulfinyl)-propyl]-piperazin-1-yl}-pyrimidine hydrochloride]

Ki [1, 7]: 16.6 nM
Selectivity [Ki(D2)/Ki(D3)] ([2]; Table 6): 18
SMILES: Cl.Cn1cnc([S+]([O-])CCCN2CCN(c3cc(C(F)(F)F)nc(C(C)(C)C)n3)CC2)n1 (stereo not shown) [Example 21, 2-tert-Butyl-4-{4-[3-(1-methyl-1H-[1,2,4]triazole-3-sulfinyl)-propyl]-piperazin-1-yl}-6-trifluoromethyl-pyrimidine hydrochloride]

Ki [1, 7]: 23.3 nM
Selectivity [Ki(D2)/Ki(D3)] ([2]; Table 6): 30
SMILES: Cn1cnnc1[S+]([O-])CCCN1CCN(c2cc(C3CCCC3)nc(C(C)(C)C)n2)CC1 (stereo not shown) [Example 25, 2-tert-Butyl-4-{4-[3-(4-methyl-1H-[1,2,4]triazole-3-sulfinyl)-propyl]-piperazin-1-yl}-6-cyclopentyl-pyrimidine]

Ki [1, 6]: 28.7 nM
Selectivity [Ki(D2)/Ki(D3)] ([2]; Table 5): 20
SMILES: Cc1nnc([S+]([O-])CCCN2CCN(c3cc(C4(C)CC4)nc(C(C)(C)C)n3)CC2)n1C (stereo not shown) [Example 6, 2-tert-Butyl-4-{4-[3-(4,5-dimethyl-4H-[1,2,4]triazole-3-sulfinyl)-propyl]-piperazin-1-yl}-6-(1-methyl-cyclopropyl)-pyrimidine]
